# Laboratory results reported in PubChem BioAssay (NCI).
# Where “and” joins values, the source holds several entries; their conditions need not be identical. Equal values may be shown once.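 1) Cells in 96-well plates. 2) Compound, 48 h, 5 concentrations. 3) Linear interpolation between surrounding doses. 4) Unreached endpoint = highest concentration. GI50 marks 50% less growth. TGI: total growth inhibition.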
# What was measured:
# Assay in all cases: NCI anticancer screen, dose series, 48 h
# [1] = tested on: SNB-75 CNS
# [2] = tested on: SK-MEL-28 melanoma
# [3] = tested on: OVCAR-3 ovarian
# [4] = tested on: DU-145 prostate
# [5] = tested on: NCI-H460 lung
# [6] = tested on: CCRF-CEM leukemia
# [7] = tested on: SW-620 colon
# [8] = tested on: NCI-H23 lung
# [9] = tested on: HOP-62 NSCLC
# [10] = tested on: SNB-19 CNS
SMILES,GI50 [1] [µM],TGI [1],GI50 [2] [µM],TGI [2],GI50 [3] [µM],TGI [3],TGI [4],TGI [5],GI50 [6] [µM],TGI [6] [µM],GI50 [7] [µM],TGI [7],GI50 [8] [µM],TGI [8],GI50 [9] [µM],TGI [9],GI50 [10] [µM],TGI [10],GI50 [4] [µM],GI50 [5] [µM]
NCCn1c2c(c3ccccc3c1=O)C(=O)c1ccccc1-2,1.04,3.2 µM,1.46,3.14 µM,0.681,2.53 µM,2.58 µM,6.4 µM,0.33,1.74,0.147,4.32 µM,0.237,1.86 µM,0.369,1.1 µM,0.251,2.09 µM,–,–
CCCC(=O)Nc1cn(COC)c(C(=O)N2C[C@H]3C[C@@]34C2=CC(=O)c2[nH]cc(C)c24)n1,32,21.6 µM and > 100 µM,17.3,35.7 µM and > 100 µM,4.93,24.5 µM and 72 µM,5 µM and 11.4 µM,15.9 µM and 28.7 µM,0.555,–,13.4,50 µM and > 100 µM,2.59,11.8 µM and 16.7 µM,4.52,50 µM and > 100 µM,10.4,50 µM and > 100 µM,2.56,–
N#Cc1c(-c2ccc(Cl)cc2)csc1NC(=O)Nc1cccc(C(F)(F)F)c1,2.01,12.7 µM,2.65,8.97 µM,2.73,11.2 µM,13.9 µM,10.2 µM,3.17,12,3.33,13.9 µM,1.99,5.33 µM,2.33,8.04 µM,3.39,13.4 µM,3.21,2.76
COc1ccc(-c2cn(-c3cc(OC)c(OC)c(OC)c3)c(=O)n2-c2ccccc2)cc1,30.7,> 100 µM,> 100,> 100 µM,43.1,> 100 µM,> 100 µM,> 100 µM,> 100,> 100,> 100,> 100 µM,> 100,> 100 µM,66.2,> 100 µM,> 100,> 100 µM,> 100,> 100
COc1ccccc1-c1nccc(COc2ccccc2C[C@@H](Oc2ncnc3sc(-c4ccc(F)cc4)c(-c4ccc(OCCN5CCN(C)CC5)c(Cl)c4C)c23)C(=O)O)n1,0.0348,1.29 µM,1.76,3.36 µM,2.51,6.99 µM,13.9 µM,5.84 µM,0.804,> 35.7,2.34,6.88 µM,1.11,3.84 µM,2.39,7.21 µM,2.05,4.58 µM,5.84,2.09
Cc1ccc2c(C(C[N+](=O)[O-])c3ccco3)c(-c3ccccc3)[nH]c2c1 (stereo unspecified),4.75,71 µM,98.9,> 100 µM,22.8,> 100 µM,> 100 µM,> 100 µM,34.1,> 100,11.4,> 100 µM,64.5,> 100 µM,16,> 100 µM,59,> 100 µM,74.4,26.7
Nc1ccc2c(SCC(=O)Nc3ccccc3-c3ccccc3NC(=O)CSc3c4ccccc4nc4cc(N)ccc34)c3ccccc3nc2c1,–,> 96.4 µM,–,52.5 µM,–,70.4 µM,> 58.7 µM,97.8 µM,–,> 100,–,67.4 µM,–,39.5 µM,–,63.4 µM,–,44.2 µM,–,–
CC[C@H](C)[C@H](NC(=O)N[C@@H](C)c1ccccc1)C(=O)N(C)[C@H](C[C@@H](OC(C)=O)c1nc(C(=O)N[C@@H](Cc2ccccc2)C[C@H](C)C(=O)OC)cs1)C(C)C,13.8,> 100 µM,47,> 100 µM,16.9,42.2 µM,> 100 µM,95.5 µM,23.9,> 100,26.4,> 100 µM,28.2,> 100 µM,33,> 100 µM,28.6,> 100 µM,32.8,26.6
CCn1c(-c2nonc2N)nc2c(C#CC(C)(C)O)ncc(OC[C@@H]3CCCN3)c21,0.942,> 21.8 µM,12.1,> 25 µM,2.86,9.22 µM,> 22.9 µM,> 22.6 µM,2.33,> 25,6.84,> 25 µM,8.64,> 25 µM,7.07,24.9 µM,4.28,> 25 µM,4.76,4.51
